Laboratory results: US6723727B1, “Substituted purine derivatives, processes for their preparation, their use, and compositions comprising them” (Hoechst Aktiengesellschaft, priority 1996, dated 2004)

Target: human vitronectin receptor αvβ3 (Homo sapiens, UniProt P05106+P06756)
Test: Inhibition of binding of kistrin to human vitronectin receptor (αvβ3 ELISA test, K/VnR)
Conditions: for K/VnR Inhibition at 10 μM (in %): 10 μM test compound

Chain of human vitronectin receptor αvβ3 (P06756 31-889 limits assumed): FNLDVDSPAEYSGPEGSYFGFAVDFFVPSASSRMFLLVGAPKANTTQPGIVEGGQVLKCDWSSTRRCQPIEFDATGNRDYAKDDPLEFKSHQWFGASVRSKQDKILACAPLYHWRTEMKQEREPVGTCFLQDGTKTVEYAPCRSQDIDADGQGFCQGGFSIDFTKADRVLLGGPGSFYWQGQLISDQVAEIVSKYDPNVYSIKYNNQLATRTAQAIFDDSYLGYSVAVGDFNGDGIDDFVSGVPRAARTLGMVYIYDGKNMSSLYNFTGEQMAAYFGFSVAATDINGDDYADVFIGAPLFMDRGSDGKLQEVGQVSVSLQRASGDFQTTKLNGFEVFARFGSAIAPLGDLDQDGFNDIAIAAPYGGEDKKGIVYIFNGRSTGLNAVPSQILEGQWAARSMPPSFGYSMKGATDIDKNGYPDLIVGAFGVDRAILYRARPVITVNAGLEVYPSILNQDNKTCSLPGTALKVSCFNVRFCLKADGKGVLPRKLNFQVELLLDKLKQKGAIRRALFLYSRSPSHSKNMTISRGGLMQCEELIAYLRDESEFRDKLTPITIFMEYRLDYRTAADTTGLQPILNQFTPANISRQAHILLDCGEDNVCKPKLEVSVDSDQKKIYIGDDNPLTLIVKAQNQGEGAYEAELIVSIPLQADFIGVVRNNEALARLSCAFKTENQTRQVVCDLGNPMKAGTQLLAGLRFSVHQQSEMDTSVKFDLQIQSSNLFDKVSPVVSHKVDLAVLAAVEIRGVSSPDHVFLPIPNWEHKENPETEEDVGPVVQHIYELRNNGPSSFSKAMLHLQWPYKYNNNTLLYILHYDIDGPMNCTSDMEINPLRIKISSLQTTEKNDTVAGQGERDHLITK
Chain of human vitronectin receptor αvβ3 (P06756 891-1048 limits assumed): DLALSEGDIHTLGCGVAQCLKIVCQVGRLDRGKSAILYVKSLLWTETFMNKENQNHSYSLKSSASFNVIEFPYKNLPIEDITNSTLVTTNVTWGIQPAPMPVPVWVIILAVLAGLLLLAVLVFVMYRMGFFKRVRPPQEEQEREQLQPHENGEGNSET
Chain of human vitronectin receptor αvβ3 (P05106 27-788): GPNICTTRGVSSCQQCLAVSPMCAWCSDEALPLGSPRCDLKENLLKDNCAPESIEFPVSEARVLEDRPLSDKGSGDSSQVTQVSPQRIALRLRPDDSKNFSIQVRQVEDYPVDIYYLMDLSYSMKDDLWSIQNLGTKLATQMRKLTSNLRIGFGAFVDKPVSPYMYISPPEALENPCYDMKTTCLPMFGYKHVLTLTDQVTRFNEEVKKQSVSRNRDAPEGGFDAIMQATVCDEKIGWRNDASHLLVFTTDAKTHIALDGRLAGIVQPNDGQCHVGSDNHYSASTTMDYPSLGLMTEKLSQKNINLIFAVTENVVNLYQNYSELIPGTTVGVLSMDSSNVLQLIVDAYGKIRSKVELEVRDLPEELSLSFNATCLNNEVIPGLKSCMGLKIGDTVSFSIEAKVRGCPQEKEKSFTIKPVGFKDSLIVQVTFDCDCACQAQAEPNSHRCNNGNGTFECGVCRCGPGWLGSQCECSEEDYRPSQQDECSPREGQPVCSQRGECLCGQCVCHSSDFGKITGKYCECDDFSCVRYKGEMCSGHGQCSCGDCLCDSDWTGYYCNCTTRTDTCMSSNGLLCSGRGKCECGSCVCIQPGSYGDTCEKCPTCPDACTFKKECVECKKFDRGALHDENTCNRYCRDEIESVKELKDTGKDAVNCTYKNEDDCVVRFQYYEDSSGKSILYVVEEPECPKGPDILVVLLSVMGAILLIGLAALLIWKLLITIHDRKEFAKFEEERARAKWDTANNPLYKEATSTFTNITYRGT

| SMILES | IC50 [nM] | K/VnR Inhibition at 10 μM (in %) [%] |
| --- | --- | --- |
| N=C(N)NCCCCCNc1ncnc2c1ncn2C[C@H](NC(=O)OCc1ccccc1)C(=O)O [Example 1, N^6-(1-(5-Guanidinopentyl))-N^9-(3-(2S-(benzyloxycarbonylamino)propionic acid))-adenine] | 1100 | – |
| N=C(N)NCCCCNc1ncnc2c1ncn2C[C@H](NC(=O)OCc1ccccc1)C(=O)O [Example 2, N^6-(1-(4-Guanidinobutyl))-N^9-(3-(2S-(benzyloxycarbonylamino)propionic acid))-adenine] | 700 | – |
| N=C(N)NCCCNc1ncnc2c1ncn2C[C@H](NC(=O)OCc1ccccc1)C(=O)O [Example 3, N^6-(1-(3-Guanidinopropyl))-N^9-(3-(2S-(benzyloxycarbonylamino)propionic acid))-adenine] | 2200 | – |
| O=C(N[C@@H](Cn1cnc2c(NCCCCNC3=NCCN3)ncnc21)C(=O)O)OCc1ccccc1 [Example 4, N^6-(1-(4-(4,5-Dihydro-1H-imidazol-2-ylamino)butyl))-N^9-(3-(2S-(benzyloxycarbonylamino)propionic acid))-adenine] | 150 | – |
| N=C(N)NCCCn1cnc2c(NCC[C@H](NC(=O)OCc3ccccc3)C(=O)O)ncnc21 [Example 12, N^6-(4-(2S-(Benzyloxycarbonylamino)butyric acid))-N^9-(1-(3-guanidinylpropyl))-adenine] | 580 | – |
| O=C(N[C@@H](CCNc1ncnc2c1ncn2CCCNC1=NCCN1)C(=O)O)OCc1ccccc1 [Example 13, N^6-(4-(2S-(Benzyloxycarbonylamino)butyric acid))-N^9-(1-(3-(4,5-dihydro-1H-imidazol-2-ylamino)propyl))-adenine] | 190 | – |
| N=C(N)NCCCCCn1cnc2c(NC[C@H](NC(=O)OCc3ccccc3)C(=O)O)ncnc21 [Example 14, N^6-(3-(2S-(Benzyloxycarbonylamino)propionic acid))-N^9-(1-(5-guanidinyl-pentyl))-adenine] | 650 | – |
| NCCCCCn1cnc2c(NC[C@H](NC(=O)OCc3ccccc3)C(=O)O)ncnc21 [Example 14c, N^6-(3-(2S-(Benzyloxycarbonylamino)propionic acid))-N^9-(1-(5-amino-pentyl))-adenine] | – | 22 |
| O=C(N[C@@H](CNc1ncnc2c1ncn2CCCCCNC1=NCCN1)C(=O)O)OCc1ccccc1 [Example 15, N^6-(3-(2S-(Benzyloxycarbonylamino)propionic acid))-N^9-(1-(5-(4,5-dihydro-1H-imidazol-2-ylamino)pentyl))-adenine] | 210 | – |
| N=C(N)NCCCn1cnc2c(NC[C@H](NC(=O)OCc3ccccc3)C(=O)O)ncnc21 [Example 16, N^6-(3-(2S-(Benzyloxycarbonylamino)propionic acid))-N^9-(1-(3-guanidinylpropyl))-adenine] | 540 | – |
| NCCCn1cnc2c(NC[C@H](NC(=O)OCc3ccccc3)C(=O)O)ncnc21 [Example 16b, N^6-(3-(2S-(Benzyloxycarbonylamino)propionic acid))-N^9-(1-(3-amino-propyl))-adenine] | – | 29 |
| N=C(N)NCCCCn1cnc2c(NC[C@H](NC(=O)OCc3ccccc3)C(=O)O)ncnc21 [Example 17, N^6-(3-(2S-(Benzyloxycarbonylamino)propionic acid))-^9-(1-(4guanidinyl-butyl))-adenine] | 170 | – |
| O=C(N[C@@H](CNc1ncnc2c1ncn2CCCCNC1=NCCN1)C(=O)O)OCc1ccccc1 [Example 18] | 75 | – |
| O=C(N[C@@H](Cn1cnc2c(N3CCC(C(=O)NC4=NCCCN4)CC3)ncnc21)C(=O)O)OCc1ccccc1 [Example 19, 2S-Benzyloxycarbonylamino-3-(6-(4-(1,4,5,6-tetrahydropyrimidin-2-yl-carbamoyl)piperidin-1-yl)purin-9-yl)propionic acid] | 4 | – |
| O=C(N[C@@H](Cn1cnc2c(NCCCCNc3nc4ccccc4[nH]3)ncnc21)C(=O)O)OCc1ccccc1 [Example 23, 3-(6-((4-(Benzimidazol-2-ylamino)butyl)amino)purin-9-yl)-2S-benzyloxycarbonylaminopropionic Acid] | 160 | – |
| O=C(N[C@@H](Cn1cnc2c(N3CCC(CNC4=NCCN4)CC3)ncnc21)C(=O)O)OCc1ccccc1 [Example 24, 2S-Benzyloxycarbonylamino-3-(6-(4-((4,5-dihydro-1H-imidazol-2-ylamino)-methyl)piperidin-1-yl)purin-9-yl)propionic Acid] | 52 | – |
| O=C(N[C@H](Cn1cnc2c(N3CCC(CNC4=NCCN4)CC3)ncnc21)C(=O)O)OCc1ccccc1 [Example 25, 2R-Benzyloxycarbonylamino-3-(6-(4-((4,5-dihydro-1H-imidazol-2-ylamino)-methyl)piperidin-1-yl)purin-9-yl)propionic Acid] | 345 | – |
| N=C(N)NCC1CCN(c2ncnc3c2ncn3C[C@H](NC(=O)OCc2ccccc2)C(=O)O)CC1 [Example 26, 2S-Benzyloxycarbonylamino-3-(6-(4-(guanidinomethyl)piperidin-1-yl)purin-9-yl)propionic Acid] | 360 | – |
